According to ChEMBL document CHEMBL1201862, “PubChem BioAssay data set” (2004):
The source made the active and inactive calls. Rule as the data show it, for most assays here: actives have a measured IC50 and inactives only a lower limit.

What was measured:
[1] = molecular target: T1, Tyrosine-protein phosphatase non-receptor type 7 (Homo sapiens, UniProt P35236); assay type: functional
T1 sequence (P35236 whole entry): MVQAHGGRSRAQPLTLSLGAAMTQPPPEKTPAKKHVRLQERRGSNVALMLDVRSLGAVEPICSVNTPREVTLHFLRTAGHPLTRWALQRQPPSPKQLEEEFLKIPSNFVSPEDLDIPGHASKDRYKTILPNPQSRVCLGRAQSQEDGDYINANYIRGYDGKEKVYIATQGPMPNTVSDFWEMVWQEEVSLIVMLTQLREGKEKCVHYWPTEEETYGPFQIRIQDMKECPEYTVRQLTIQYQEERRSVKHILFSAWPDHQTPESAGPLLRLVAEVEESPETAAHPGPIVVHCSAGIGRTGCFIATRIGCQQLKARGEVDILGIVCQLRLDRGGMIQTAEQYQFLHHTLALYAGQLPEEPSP

[2] = molecular target: Glyceraldehyde-3-phosphate dehydrogenase (Homo sapiens, UniProt P04406)
[3] = molecular target: T2, Dual specificity protein phosphatase 6 (Rattus norvegicus, UniProt Q64346)
T2 sequence (Q64346 whole entry): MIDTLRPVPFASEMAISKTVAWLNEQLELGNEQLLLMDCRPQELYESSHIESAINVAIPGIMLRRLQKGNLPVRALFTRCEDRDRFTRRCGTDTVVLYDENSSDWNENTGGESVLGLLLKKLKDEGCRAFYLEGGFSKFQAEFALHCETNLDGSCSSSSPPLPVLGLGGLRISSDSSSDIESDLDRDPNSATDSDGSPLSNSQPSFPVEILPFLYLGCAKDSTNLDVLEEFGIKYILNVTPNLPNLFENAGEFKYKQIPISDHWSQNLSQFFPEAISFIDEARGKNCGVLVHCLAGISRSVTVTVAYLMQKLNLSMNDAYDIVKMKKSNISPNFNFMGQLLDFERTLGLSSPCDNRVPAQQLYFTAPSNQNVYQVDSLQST

[4] = molecular target: T3, Short transient receptor potential channel 4 (Mus musculus, UniProt Q9QUQ5); experiment: block of DAMGO-driven TRPC4 calcium entry – cell-based, HEK293 TRPC4/mu-opioid, Fluo-4 calcium, dose response (AID 434942); assay type: functional;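 also: potency of inhibitors blocking the TRPC4 calcium response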
T3 sequence (Q9QUQ5 whole entry): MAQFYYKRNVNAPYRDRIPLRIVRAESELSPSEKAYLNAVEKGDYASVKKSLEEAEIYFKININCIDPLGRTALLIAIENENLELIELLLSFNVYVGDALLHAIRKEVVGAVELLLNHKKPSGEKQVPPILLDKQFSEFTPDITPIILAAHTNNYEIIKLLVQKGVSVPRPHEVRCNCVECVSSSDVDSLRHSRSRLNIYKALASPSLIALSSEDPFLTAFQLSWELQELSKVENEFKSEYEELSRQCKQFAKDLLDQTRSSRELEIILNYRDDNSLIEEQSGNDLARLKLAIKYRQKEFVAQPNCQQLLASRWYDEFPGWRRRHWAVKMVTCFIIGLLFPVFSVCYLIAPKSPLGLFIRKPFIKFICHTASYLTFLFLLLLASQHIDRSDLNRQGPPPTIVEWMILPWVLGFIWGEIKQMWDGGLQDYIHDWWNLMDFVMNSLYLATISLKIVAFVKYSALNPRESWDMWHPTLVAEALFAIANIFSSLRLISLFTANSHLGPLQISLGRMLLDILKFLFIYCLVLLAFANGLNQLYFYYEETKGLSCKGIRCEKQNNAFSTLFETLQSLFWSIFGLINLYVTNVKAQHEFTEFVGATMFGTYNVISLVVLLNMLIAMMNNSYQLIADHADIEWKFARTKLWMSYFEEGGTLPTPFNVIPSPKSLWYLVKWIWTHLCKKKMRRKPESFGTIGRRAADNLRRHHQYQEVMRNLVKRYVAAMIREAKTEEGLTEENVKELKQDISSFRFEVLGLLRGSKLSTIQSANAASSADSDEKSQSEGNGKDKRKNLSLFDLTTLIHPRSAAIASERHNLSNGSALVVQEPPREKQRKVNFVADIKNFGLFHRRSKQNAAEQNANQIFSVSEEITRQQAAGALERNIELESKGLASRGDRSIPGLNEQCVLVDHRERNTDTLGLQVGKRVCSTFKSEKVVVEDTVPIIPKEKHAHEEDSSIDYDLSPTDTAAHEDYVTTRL

[5] = molecular target: T4, Dual specificity protein phosphatase 3 (Homo sapiens, UniProt P51452); experiment: SAR VHR1 Fluorescent Assay for In Vitro dose response studies. [Related pubchem assays (depositor defined):AID1654, AID1661, AID1878, AID1992, AID2004, AID2070, AID2085]; assay type: functional
[6] = molecular target: T4, Dual specificity protein phosphatase 3; experiment: MOA VHR1 Fluorescent secondary assay for identification of redox-state modulating compounds. [Related pubchem assays (depositor defined):AID1654, AID1661, AID1878, AID1957]
[7] = molecular target: T1, Tyrosine-protein phosphatase non-receptor type 7; experiment: redox-active compounds inhibiting HePTP phosphatase – biochemical, fluorescence, mechanism study (AID 2068); assay type: functional
[8] = molecular target: T3, Short transient receptor potential channel 4; experiment: calcium entry via TRPC4 opening agents – cell-based, HEK293 TRPC4/mu-opioid, Fluo-4 calcium, dose response (AID 434937); assay type: functional
[9] = molecular target: T2, Dual specificity protein phosphatase 6; assay type: functional
[10] = molecular target: T3, Short transient receptor potential channel 4; experiment: potentiation of DAMGO-evoked TRPC4 calcium signal – cell-based, HEK293 TRPC4/mu-opioid, Fluo-4 calcium, EC20 DAMGO, dose response (AID 434941); assay type: functional

T4 sequence (P51452 whole entry): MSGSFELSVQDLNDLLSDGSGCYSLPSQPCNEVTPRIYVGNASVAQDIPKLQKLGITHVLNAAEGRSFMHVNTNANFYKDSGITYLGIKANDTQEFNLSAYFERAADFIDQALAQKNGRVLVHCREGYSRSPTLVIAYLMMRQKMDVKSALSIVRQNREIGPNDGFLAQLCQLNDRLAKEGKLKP
Sequence of Glyceraldehyde-3-phosphate dehydrogenase (P04406 whole entry): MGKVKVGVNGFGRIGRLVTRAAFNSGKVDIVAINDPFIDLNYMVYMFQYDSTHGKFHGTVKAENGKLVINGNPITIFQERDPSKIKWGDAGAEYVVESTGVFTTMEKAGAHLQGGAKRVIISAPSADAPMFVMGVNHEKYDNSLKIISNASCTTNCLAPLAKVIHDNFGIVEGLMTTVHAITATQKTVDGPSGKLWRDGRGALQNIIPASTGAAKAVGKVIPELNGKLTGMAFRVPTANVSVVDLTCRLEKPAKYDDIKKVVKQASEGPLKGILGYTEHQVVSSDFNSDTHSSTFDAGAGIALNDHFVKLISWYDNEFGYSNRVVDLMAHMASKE

| Compound | IC50 [1] | IC50 [2] | IC50 [3] | EC50 [4] | IC50 [5] | IC50 [6] | IC50 [7] | EC50 [8] | IC50 [9] | EC50 [10] |
| --- | --- | --- | --- | --- | --- | --- | --- | --- | --- | --- |
| Cc1ccc2c(nc3s/c(=C\c4ccc(-c5ccccc5C(=O)O)o4)c(=O)n32)c1C | 3.88 µM (active) | > 100 µM (not active) | 22 µM (active) | 5.31 µM (active) | 5.71 µM (active) | 2.94 µM (active) | 2.2 µM (active) | 6.68 µM (active) | 35.3 µM (active) |  |
| Cc1ccc(C(C)C)cc1OCCCCN1CCCC1 |  |  |  |  |  |  |  |  |  | 0.53 µM (active) |
